Measurements reported in patent US5389643A, “Aminobenzoic acid derivatives useful for treating gastro-intestinal conditions” (Eisai Co., Ltd., priority 1992, dated 1995).
Where a name gives a salt, the structure may show the parent alone. Read-outs that look alike come from different tables or passages of the source.

Key:
[1] = system: gastric emptying function; assay: Activity for raising gastric emptying function; assay type: in vivo, Fischer male rats; conditions: oral (5 ml/kg), one hour before test food, versus control rat
Procedure: Activity for raising gastric emptying function
This experiment was made according to the method of Decktot et al. [see Eur. J. Pharmacol., 147, 313-316 (1988)]. Fischer male rats (weight: 160 to 180 g) were fasted for 18 hours before 3 ml of a test food comprising methylcellulose, beef broth, casein, sugar and corn starch was orally administered to each rat. One hour after the administration, the stomach was extirpated from each rat. The gastric emptying ratio was calculated from the weight of the test food remaining in the stomach. The ratio of rise of the gastric emptying function was determined by comparing the gastiric emptying ratio of a medicated rat with that of a control rat which had not administered any test compounds. Each test compound (5 ml/kg) was orally administered one hour before the administration of the test food. BRL 24682 was used as a control in this experiment.

[2] = system: cisplatin-induced vomiting; assay: Activity against cisplatin-induced vomiting of beagle; assay type: in vivo; conditions: intravenous, one hour after cisplatin 3 mg/kg, 5-hour observation
Procedure: Activity against cisplatin-induced vomiting of beagle
Beagles weighing 7 to 12 kg were used. 3 mg/kg of cisplatin (a product of Sigma) (1 ml/kg of physiological saline) was administered to each beagle through the vein of its forefoot. One hour after the administration of cisplatin, physiological saline (0.2 ml/kg) was administered to a control group of beagles and a solution of a test compound in physiological saline was administered to a test group of beagles, each through the vein of the other forefoot. The frequency of vomiting observed over a 5-hour period from the administration of cisplatin was recorded and the inhibitory ratio of the test compound was calculated according to the following formula.

[3] = system: contraction of guinea pig ileum induced by electrical field stimulation (acetylcholine release); assay: Effect of increasing contraction of guinea pig ileum induced by electrical field stimulation; assay type: cell-based; conditions: electrical field stimulation once per 10 seconds, cumulative addition at intervals of 10 minutes, 37° C., read-out: Min. concn. causing increment of ileal contraction
Procedure: Effect of increasing contraction of guinea pig ileum induced by electrical field stimulation
This experiment was made according to the method of Sanger et al. [see Br. J. Pharmacol., 91, 77-87 (1987)]. The longitudinal muscle of the nonterminal ileum of a guinea pig was separated and vertically suspended in the Krebs-Henseleit solution (37° C.) in a Magnus tube by applying a load of 0.5 g to the end of the muscle. A mixed gas comprising 95% of oxygen and 5% of carbon dioxide was passed through the solution. The contraction of the muscle was isometrically determined. Electrical field stimulation was applied to the muscle by the use of a platinum electrode once per 10 seconds to induce the contraction of the muscle. The contraction was caused through the release of acetylcholine. After the muscle had been stabilized, a solution of a test compound was cumulatively added into the Magnus tube at intervals of 10 minutes. The effect of the test compound is represented by percentage based on the initial contraction. The minimum concentration of each test compound at which an increment was found in the contraction due to the release of acetylcholine is shown in Table 4.

[4] = target: T1, 2-methylserotonin-induced contraction of the ileum (5-HT3 antagonism) (Cavia porcellus, UniProt O70212); assay: Antagonism against 2-methylserotonin-induced contraction or systole of ileum; assay type: cell-based, guinea pig (Hartley male); conditions: test compound added 30 minutes before 2-methylserotonin; nonterminal ileum, 37° C.; read-out: pA2 (converted)
T1 construct: from tissue; host or cells: isolated nonterminal ileum of male Hartley guinea pig
T1 sequence (O70212 20-490): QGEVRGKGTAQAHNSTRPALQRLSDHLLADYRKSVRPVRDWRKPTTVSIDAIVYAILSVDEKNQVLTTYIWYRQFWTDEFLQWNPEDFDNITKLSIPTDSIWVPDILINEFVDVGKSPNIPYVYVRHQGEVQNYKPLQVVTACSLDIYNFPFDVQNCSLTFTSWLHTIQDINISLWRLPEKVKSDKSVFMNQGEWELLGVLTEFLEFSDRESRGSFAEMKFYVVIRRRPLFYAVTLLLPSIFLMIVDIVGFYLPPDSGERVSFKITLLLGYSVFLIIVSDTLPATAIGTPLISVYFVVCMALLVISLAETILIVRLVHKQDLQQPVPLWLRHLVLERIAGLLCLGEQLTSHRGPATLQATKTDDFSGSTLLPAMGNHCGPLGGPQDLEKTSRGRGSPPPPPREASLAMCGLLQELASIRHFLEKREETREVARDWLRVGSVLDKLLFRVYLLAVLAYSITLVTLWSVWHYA
Procedure: Antagonism against 2-methylserotonin-induced contraction or systole of ileum
This experiment was made according to the method of Sanger et al. [see Eur. J. Pharmacol., 159, 113-124 (1989)]. The nonterminal ileum of a Hartley male guinea pig was suspended in the Krebs-Henseleit solution (37° C.) by applying a load of 0.5 g to the end of the ileum and a gaseous mixture comprising 95% of oxygen and 5% of carbon dioxide was passed through the solution. The contraction of the ileum was isometrically determined. After allowing the ileum to stand for one or more hours for stabilization, a solution of a test compound was added to the solution, and after 30 minutes, 2-methylserotonin was noncumulatively added. The pA2 value was calculated from the rightward shift of the dose-response curve of the 2-methylserotonin-induced contraction caused by the test compound according to the method of Rossum et al. [see Arch. Int. Pharmacodyn., 143, 299(1963)]. BRL 24682 was used as a control in this experiment.

rat = assay: Oral toxicity in rat, one week; assay type: in vivo; conditions: dose of up to 30 mg/kg
[5] = listed as 42 (+)-isomer, hydrochloride
[6] = listed as 43 (-)-isomer, hydrochloride

| Structure (SMILES) | Ratio of rise of gastric emptying function [1] | Inhibitory ratio against cisplatin-induced vomiting ([2]; 0.03 mg/kg) | Inhibitory ratio against cisplatin-induced vomiting ([2]; 0.1 mg/kg) | minimal effective concentration ([3]; listed as 4 (+)-isomer, hydrochloride) | Kb [4] | toxicity on oral administration for one week (rat) | Ratio of rise of gastric emptying function [1, 5] | minimal effective concentration [3, 5] | Ratio of rise of gastric emptying function [1, 6] | minimal effective concentration [3, 6] | Inhibitory ratio against cisplatin-induced vomiting ([2]; 0.3 mg/kg) | minimal effective concentration ([3]; Cavia porcellus, 10 min) |
| --- | --- | --- | --- | --- | --- | --- | --- | --- | --- | --- | --- | --- |
| CC#CC(C)Oc1cc(N)c(Cl)cc1C(=O)N[C@H]1C[C@H]2CC[C@@H](C1)N2C (single isomer, unassigned; (-)) [Example 4, (-)-endo-4-Amino-5-chloro-N-(8-methyl-8-azabicyclo[3.2.1]oct-3-yl)-2-{(3-pentyn-2-yl)oxy)benzamide hydrochloride] | 31.1% | 37% | 78% | 0.056 µM | 2.69 nM | no toxicity was exhibited in a dose of up to 30 mg/kg |  |  |  |  |  |  |
| C#CCC(C)Oc1cc(N)c(Cl)cc1C(=O)N[C@H]1C[C@H]2CC[C@@H](C1)N2C (single isomer, unassigned; (+)) [Example 42, (+)-endo-4-Amino-5-chloro-N-(8-methyl-8-azabicyclo[3.2.1]oct-3-yl)-2-{(4-pentyn-2-yl)oxy}benzamide hydrochloride] |  | 59% | 92% |  | 1.2 nM |  | 22.2% | 0.086 µM |  |  |  |  |
| C#CCC(C)Oc1cc(N)c(Cl)cc1C(=O)N[C@H]1C[C@H]2CC[C@@H](C1)N2C (single isomer, unassigned; (-)) [Example 43, (-)-endo-4-Amino-5-chloro-N-(8-methyl-8-azabicyclo[3.2.1]oct-3-yl)-2-{(4-pentyn-2-yl)oxy}benzamide hydrochloride] |  |  |  |  |  | no toxicity was exhibited in a dose of up to 30 mg/kg |  |  | 12.9% | 0.47 µM |  |  |
| C#CCOc1cc(N)c(Cl)cc1C(=O)N[C@H]1C[C@H]2CC[C@@H](C1)N2C [Example 21, endo-4-Amino-5-chloro-(8-methyl-8-azabicyclo[3.2.1]oct-3-yl)-2-propargyloxybenzamide hydrochloride] | 18.9% |  |  |  | 3.47 nM |  |  |  |  |  | 100% | 0.052 µM |
| CC#CC(C)Oc1cc(N)c(Cl)cc1C(=O)N[C@H]1C[C@H]2CC[C@@H](C1)N2C (stereo partly drawn) [Example 2, endo-4-Amino-5-chloro-N-(8-methyl-8-azabicyclo[3.2.1]oct-3-yl) -2-{(3-pentyn-2-yl)oxy}benzamide hydrochloride] | 24.5% |  |  |  | 2.09 nM |  |  |  |  |  |  | 0.05 µM |
